Data: patent US11319315B2, “Cyclohexyl acid triazole azoles as LPA antagonists” (BRISTOL-MYERS SQUIBB COMPANY, priority 2017, dated 2022)
Counter-ions that a name gives are not always drawn.

Target: T1, human LPA1 (Homo sapiens, UniProt Q92633)
T1 construct: expressed in transfected cells; host or cells: Chinese hamster ovary (CHO) cells
Assay: LPA1 functional antagonist assay (LPA-induced calcium flux in CHO cells overexpressing human LPA1)
Format: cell-based
Settings: inhibition of calcium flux induced by 10 nM LPA, CHO cells overexpressing human LPA1; read-out: hLPA1 IC50
Outline: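 Calcium flux was triggered by 10 nM LPA after 20 min room-temperature compound pre-incubation (final 0.08 nM to 5 μM, 0.5% DMSO) in human LPA1-overexpressing CHO cells carrying calcium dye. Buffer: HBSS with Ca/Mg, 20 mM HEPES, 0.1% fatty-acid-free BSA; IC50s from 4-parameter logistic fits.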

T1 sequence (Q92633 whole entry): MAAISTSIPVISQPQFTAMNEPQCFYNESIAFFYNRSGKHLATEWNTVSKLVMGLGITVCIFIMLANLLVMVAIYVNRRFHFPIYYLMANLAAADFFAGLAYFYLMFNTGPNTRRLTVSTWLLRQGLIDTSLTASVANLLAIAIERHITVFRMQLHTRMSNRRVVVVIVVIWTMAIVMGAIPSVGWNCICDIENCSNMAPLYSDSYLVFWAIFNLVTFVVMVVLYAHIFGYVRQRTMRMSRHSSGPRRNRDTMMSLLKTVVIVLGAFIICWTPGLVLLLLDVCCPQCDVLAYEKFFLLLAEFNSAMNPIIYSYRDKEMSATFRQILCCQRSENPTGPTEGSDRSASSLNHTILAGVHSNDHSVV

SMILES | IC50
Cn1nnc(-c2ccc(O[C@H]3CCC[C@H](C(=O)O)C3)cn2)c1Cn1nnnc1CC1CC1 [Example 251, (1S,3S)-3-((6-(5-((5-(cyclopropylmethyl)-1H-tetrazol-1-yl)methyl)-1-methyl-1H-1,2,3-triazol-4-yl)pyridin-3-yl)oxy)cyclohexane-1-carboxylic acid] | 125 nM
CCCc1nnn(Cc2c(-c3ccc(O[C@H]4CCC[C@H](C(=O)O)C4)cn3)nnn2C)n1 [Example 252, (1S,3S)-3-((6-(1-methyl-5-((5-propyl-2H-tetrazol-2-yl)methyl)-1H-1,2,3-triazol-4-yl)pyridin-3-yl)oxy)cyclohexane-1-carboxylic acid] | 531 nM
CCCc1nnnn1Cc1c(-c2ccc(O[C@H]3CCC[C@H](C(=O)O)C3)cn2)nnn1C [Example 253, (1S,3S)-3-((6-(1-methyl-5-((5-propyl-1H-tetrazol-1-yl)methyl)-1H-1,2,3-triazol-4-yl)pyridin-3-yl)oxy)cyclohexane-1-carboxylic acid] | 264 nM
CC(C)Cc1nnn(Cc2c(-c3ccc(O[C@H]4CCC[C@H](C(=O)O)C4)cn3)nnn2C)n1 [Example 254, (1S,3S)-3-((6-(5-((5-isobutyl-2H-tetrazol-2-yl)methyl)-1-methyl-1H-1,2,3-triazol-4-yl)pyridin-3-yl)oxy)cyclohexane-1-carboxylic acid] | 288 nM
CC(C)Cc1nnnn1Cc1c(-c2ccc(O[C@H]3CCC[C@H](C(=O)O)C3)cn2)nnn1C [Example 255, (1S,3S)-3-((6-(5-((5-isobutyl-1H-tetrazol-1-yl)methyl)-1-methyl-1H-1,2,3-triazol-4-yl)pyridin-3-yl)oxy)cyclohexane-1-carboxylic acid] | 237 nM
CCCCc1nnnn1Cc1c(-c2ccc(O[C@H]3CCC[C@H](C(=O)O)C3)cn2)nnn1C [Example 256, (1S,3S)-3-((6-(5-((5-butyl-1H-tetrazol-1-yl)methyl)-1-methyl-1H-1,2,3-triazol-4-yl)pyridin-3-yl)oxy)cyclohexane-1-carboxylic acid] | 111 nM
CCCCc1nnn(Cc2c(-c3ccc(O[C@H]4CCC[C@H](C(=O)O)C4)cn3)nnn2C)n1 [Example 257, (1S,3S)-3-((6-(5-((5-butyl-2H-tetrazol-2-yl)methyl)-1-methyl-1H-1,2,3-triazol-4-yl)pyridin-3-yl)oxy)cyclohexane-1-carboxylic acid] | 12.5 nM
Cn1nnc(-c2ccc(O[C@H]3CCC[C@H](C(=O)O)C3)cn2)c1Cn1nnnc1C1CCCC1 [Example 258, (1S,3S)-3-((6-(5-((5-cyclopentyl-1H-tetrazol-1-yl)methyl)-1-methyl-1H-1,2,3-triazol-4-yl)pyridin-3-yl)oxy)cyclohexane-1-carboxylic acid] | 433 nM
Cn1nnc(-c2ccc(O[C@H]3CCC[C@H](C(=O)O)C3)cn2)c1Cn1nnc(C2CCCC2)n1 [Example 259, (1S,3S)-3-((6-(5-((5-cyclopentyl-2H-tetrazol-2-yl)methyl)-1-methyl-1H-1,2,3-triazol-4-yl)pyridin-3-yl)oxy)cyclohexane-1-carboxylic acid] | 31 nM
Cc1nc(-c2nnn(C)c2Cn2ncc(CC(C)C)n2)ccc1O[C@H]1CCC[C@H](C(=O)O)C1 [Example 260, (1 S,3 S)-3-((6-(5-((4-Isobutyl-2H-1,2,3-triazol-2-yl)methyl)-1-methyl-1H-1,2,3-triazol-4-yl)-2-methylpyridin-3-yl)oxy)cyclohexane-1-carboxylic acid] | 35 nM
Cc1nc(-c2nnn(C)c2Cn2nncc2CC(C)C)ccc1O[C@H]1CCC[C@H](C(=O)O)C1 [Example 261, (1S,3S)-3-((6-(5-((5-isobutyl-1H-1,2,3-triazol-1-yl)methyl)-1-methyl-1H-1,2,3-triazol-4-yl)-2-methyl-pyridin-3-yl)oxy)cyclohexane-1-carboxylic acid] | 115 nM
Cc1nc(-c2nnn(C)c2Cn2cc(CC(C)C)nn2)ccc1O[C@H]1CCC[C@H](C(=O)O)C1 [Example 262, (1S,3S)-3-((6-(5-((4-isobutyl-1H-1,2,3-triazol-1-yl)methyl)-1-methyl-1H-1,2,3-triazol-4-yl)-2-methylpyridin-3-yl)oxy)cyclohexane-1-carboxylic acid] | 86 nM
Cc1nc(-c2nnn(C)c2Cn2nncc2CC2CC2)ccc1O[C@H]1CCC[C@H](C(=O)O)C1 [Example 263, (1S,3S)-3-((6-(5-((5-(cyclopropyl-methyl)-1H-1,2,3-triazol-1-yl)-methyl)-1-methyl-1H-1,2,3-triazol-4-yl)-2-methylpyridin-3-yl)oxy)-cyclohexane-1-carboxylic acid] | 41 nM
Cc1nc(-c2nnn(C)c2Cn2ncc(CC3CC3)n2)ccc1O[C@H]1CCC[C@H](C(=O)O)C1 [Example 264, (1S,3S)-3-((6-(5-((4-(cyclopropyl-methyl)-2H-1,2,3-triazol-2-yl)methyl)-1-methyl-1H-1,2,3-triazol-4-yl)-2-methylpyridin-3-yl)oxy)cyclohexane-1-carboxylic acid] | 14 nM
Cc1nc(-c2nnn(C)c2Cn2cc(CC3CC3)nn2)ccc1O[C@H]1CCC[C@H](C(=O)O)C1 [Example 265, (1S,3S)-3-((6-(5-((4-(cyclopropyl-methyl)-1H-1,2,3-triazol-1-yl)methyl)-1-methyl-1H-1,2,3-triazol-4-yl)-2-methylpyridin-3-yl)oxy)cyclohexane-1-carboxylic acid] | 40 nM
Cc1nc(-c2nnn(C)c2Cn2ncc(C3CC3)n2)ccc1O[C@H]1CCC[C@H](C(=O)O)C1 [Example 266, (1S,3S)-3-((6-(5-((4-cyclopropyl-2H-1,2,3-triazol-2-yl)methyl)-1-methyl-1H-1,2,3-triazol-4-yl)-2-methyl-pyridin-3-yl)oxy)cyclohexane-1-carboxylic acid] | 90 nM
Cc1nc(-c2nnn(C)c2Cn2cc(C3CC3)nn2)ccc1O[C@H]1CCC[C@H](C(=O)O)C1 [Example 267, (1S,3S)-3-((6-(5-((4-cyclopropyl-1H-1,2,3-triazol-1-yl)methyl)-1-methyl-1H-1,2,3-triazol-4-yl)-2-methylpyridin-3-yl)oxy)cyclohexane-1-carboxylic acid] | 2210 nM
Cc1nc(-c2nnn(C)c2Cn2nncc2C2CC2)ccc1O[C@H]1CCC[C@H](C(=O)O)C1 [Example 268, (1S,3S)-3-((6-(5-((5-cyclopropyl-1H-1,2,3-triazol-1-yl)methyl)-1-methyl-1H-1,2,3-triazol-4-yl)-2-methyl-pyridin-3-yl)oxy)cyclohexane-1-carboxylic acid] | 301 nM
CCCc1cn(Cc2c(-c3ccc(O[C@H]4CCC[C@H](C(=O)O)C4)c(C)n3)nnn2C)nn1 [Example 269, (1 S,3S)-3-((2-methyl-6-(1-methyl-5-((4-propyl-1H-1,2,3-triazol-1-yl)methyl)-1H-1,2,3-triazol-4-yl)pyridin-3-yl)oxy)cyclohexane-1-carboxylic acid] | 76 nM
CCCc1cnn(Cc2c(-c3ccc(O[C@H]4CCC[C@H](C(=O)O)C4)c(C)n3)nnn2C)n1 [Example 270, (1S,3S)-3-((2-methyl-6-(1-methyl-5-((4-propyl-2H-1,2,3-triazol-2-yl)methyl)-1H-1,2,3-triazol-4-yl)pyridin-3-yl)oxy)cyclohexane-1-carboxylic acid] | 61 nM
C=C(C)c1cnn(Cc2c(-c3ccc(O[C@H]4CCC[C@H](C(=O)O)C4)c(C)n3)nnn2C)n1 [Example 271, (1S,3 S)-3-((2-methyl-6-(1-methyl-5-((4-(prop-1-en-2-yl)-2H-1,2,3-triazol-2-yl)methyl)-1H-1,2,3-triazol-4-yl)pyridin-3-yl)oxy)cyclohexane-1-carboxylic acid] | 136 nM
Cc1nc(-c2nnn(C)c2Cn2ncc(C(C)C)n2)ccc1O[C@H]1CCC[C@H](C(=O)O)C1 [Example 272, (1S,3S)-3-((6-(5-((4-isopropyl-2H-1,2,3-triazol-2-yl)methyl)-1-methyl-1H-1,2,3-triazol-4-yl)-2-methylpyridin-3-yl)oxy)cyclohexane-1-carboxylic acid] | 35 nM
Cc1nc(-c2nnn(C)c2Cn2ncc(-c3ccccc3)n2)ccc1O[C@H]1CCC[C@H](C(=O)O)C1 [Example 273, (1 S,3S)-3-((2-methyl-6-(1-methyl-5-((4-phenyl-2H-1,2,3-triazol-2-yl)methyl)-1H-1,2,3-triazol-4-yl)pyridin-3-yl)oxy)cyclohexane-1-carboxylic acid] | 57 nM
Cc1nc(-c2nnn(C)c2Cn2sc(C3CC3)nc2=N)ccc1O[C@H]1CCC[C@H](C(=O)O)C1 [Example 274, (1 S,3 S)-3-((6-(5-((5-cyclopropyl-3-imino-1,2,4-thiadiazol-2(3H)-yl)methyl)-1-methyl-1H-1,2,3-triazol-4-yl)-2-methylpyridin-3-yl)oxy)cyclohexane-1-carboxylic acid] | 1000 nM
CCCCc1nc(Nc2c(-c3ccc(O[C@H]4CCC[C@H](C(=O)O)C4)c(C)n3)nnn2C)no1 [Example 275, (1 S,3 S)-3-((6-(5-((5-Butyl-1,2,4-oxadiazol-3-yl)amino)-1-methyl-1H-1,2,3-triazol-4-yl)-2-methylpyridin-3-yl)oxy)cyclohexane-1-carboxylic acid, 2 TFA salt] | 18 nM
Cc1nc(-c2nnn(C)c2Nc2nnc(CC3CC3)o2)ccc1O[C@H]1CCC[C@H](C(=O)O)C1 [Example 276, (1 S,3S)-3-((6-(5-((5-(Cyclopropylmethyl)-1,3,4-oxadiazol-2-yl)amino)-1-methyl-1H-1,2,3-triazol-4-yl)-2-methylpyridin-3-yl)oxy)cyclohexane-1-carboxylic acid, 2 TFA salt] | 446 nM
Cc1nc(-c2nnn(C)c2Nc2noc(CC3CC3)n2)ccc1O[C@H]1CCC[C@H](C(=O)O)C1 [Example 277, (1S,3S)-3-{[6-(5-{[5-(Cyclo-propylmethyl)-1,2,4-oxadiazol-3-yl]amino}-1-methyl-1H-1,2,3-triazol-4-yl)-2-methylpyridin-3-yl]oxy}cyclohexane-1-carboxylic acid, bis TFA salt] | 33 nM
